# Reference: US10611765B2, “Pyrrolopyrimidine derivatives as Mps1/TTK kinase inhibitors” (Ohio State Innovation Foundation, priority 2014, dated 2020)
# System: Cal-51 cells (tumor)
# Test: Tumor progression in athymic nude mice
# Type: in vivo
# Conditions: Cal-51 tumors, i.p. injection in DMSO, five-week study
# Method: Compound 13 in DMSO was administered to the test mice by i.p. injection. Cal-51 cells were injected to induce tumor growth. At the end of the five-week study, the mice were sacrificed, and the tumors were measured, dissected and weighed (FIGS. 6 and 7).
structure (smiles),measurement,value
"COc1cc(N2CCOCC2)ccc1Nc1nc(NC2CCCCC2)c2cc[nH]c2n1 [Compound 13, N4-cyclohexyl-N2-(2-methoxy-4-morpholinophenyl)-7H-pyrrolo[2,3-d]pyrimidine-2,4-diamine]",tumor progression,slowed the tumor progression
